This note sets out measurements from patent publication US20030186869A1, “Polymer compositions comprising antifibrotic agents, and methods of treatment, pharmaceutical compositions, and methods of preparation therefor” (priority 1990, published 2003).

Like-named read-outs stand apart in the source and are kept apart here.

This data set relates to RFL-6 cells. Briefly: IC50 experiment, cytotoxicity / growth inhibition of RFL-6 rat fibroblast cells. The note with it: for IC50: mean ± SD (n); for factor by which cytotoxicity as PEG construct is reduced compared to the free amino acid: RFL-6 cells. Format: cell-based. On the procedure:
In this test two different synthesis batches of cis-hydroxyproline (CHOP) linked to PEG were tested, along with free CHOP. […] The differences between the two batches of CHOP-PEG are not significant.

[1] abbreviates: Rattus norvegicus, RFL-6, free amino acid, read-out: IC50, Free AA.

In the case of `NCCCC[C@H](N)C(=O)N1C[C@@H](O)C[C@H]1C(=O)O` (relative stereo) [CHOP-Lys, L-lysine-cis-4-hydroxy-L-proline dipeptide], the IC50 (in general, the concentration needed to halve the response being measured) (lysyl dipeptide, read-out: IC50, AA-Lys) came to 7000 µM.
`O=C(O)[C@@H]1CSCN1` [THP, (R)-(−)-2-thiazolidine-4-carboxylic acid]: the “factor by which cytotoxicity as PEG construct is reduced compared to the free amino acid” value is reported as 12 ×. Also, the IC50 under setting [1] came out at 700 ± 100 µM.
`O=C(O)[C@@H]1CCN1` [ACA, (S)-(−)-2-azetidinecarboxylic acid]: the “factor by which cytotoxicity as PEG construct is reduced compared to the free amino acid” value is listed as 4 ×. Also, under setting [1], the IC50 worked out at 1700 ± 1800 µM.
Take `O=C(O)C1C=CCN1` (racemic) [DHP, 3,4-dehydro-DL-proline]: the “factor by which cytotoxicity as PEG construct is reduced compared to the free amino acid” value turned out to be 8 ×. For the same molecule, the IC50 under setting [1] is 700 ± 300 µM.
